Measurements taken from patent publication US9517204B2, “Pharmaceutical composition for inhalation” (SHIONOGI & CO., LTD., priority 2011, dated 2016).
Like-named read-outs stand apart in the source and are kept apart here. Values belong to the compound of their own block, whether it stands above or below them.

Experiments:
[1] = Reactive oxygen species (ROS) assay, photoreactivity testing; format: physicochemical
Text: This assay was established to monitor the generation of ROS, such as singlet oxygen and superoxide, from photoirradiated chemicals, and ROS generation would be indicative of the photochemical reactivity of tested chemicals.
In contrast, 8-methoxypsoralen (MOP) is known as a phototoxic and photoreactive chemical. Although 8-MOP slightly exceeded pirfenidone in ROS generation, both chemicals were identified to be photoreactive, as shown in FIG. 3 (A). When such photoreactivity and photoirritability are taken into consideration, pirfenidone can be said to raise concerns about photostability.

[2] = Pharmacokinetics (1): plasma and tissues after oral and intratracheal administration; format: in vivo, rats; conditions: for Cmax / MRT / half-life / AUC(0-inf): rat
Protocol: However, the possibility of risk reduction of photodermatosis is not clear. In general, since drug-induced photodermatosis appear in the skin and eyes, the specific distribution of drug molecules in the skin and/or eyes could be a key consideration for evaluating the photodermatosis risk. Then, in order to verify the photosafety of the formulation 1, a pharmacokinetic study was undertaken after intratracheal administration of the formulation 1 at a pharmacologically effective dose (1 mg/kg). Additionally, since in the oral administration, both pharmaceutically effective and phototoxic dose (160 mg/kg) and pharmaceutically non-effective and non-phototoxic dose (30 mg/kg) are known, pharmacokinetic parameters were obtained after oral administration at both doses. Concentration-time curves of pirfenidone in the plasma, skin, lung, and eyes were obtained by UPLC/ESI-MS analysis after intratracheal and oral administrations. After oral administration of pirfenidone, plasma and lung concentrations of pirfenidone immediately reached the Cmax within 5 min and these concentrations decreased steadily with half lives of ca. 0.3-0.8 h.

[3] = Pharmacokinetics 2: transmigration of pirfenidone to tissue after single-dose administration; design: species or system rats; conditions: rat, in vivo, po, 160 mg/kg
Protocol: Similarly to Example 5, single-dose administrations of pirfenidone orally and the formulation 1 by inhalation were performed in rats, and the amount of transmigration of pirfenidone to each tissue was monitored by UPLC/ESI-MS. When compared in dose (160 mg/kg) having an anti-inflammatory activity, while the amount of skin-transmigration of pirfenidone in 1 hour after administration was about 50 ng/g-tissue via inhalation (1 mg/kg), the amount via oral administration (160 mg/kg) was about 20 μg/g-tissue. From this, while the amount of medication in inhalation is 1/160 in the case of oral administration, the amount of skin transmigration in inhalation decreases to 1/400 of oral formulation. […] Thus, the respirable formulation of the present invention has an excellent effect.

skin = test: Phototoxic reaction in oral administration of pirfenidone (skin color, color difference meter); format: in vivo, rats; conditions: for change of skin color compared to the control group: black light irradiation
Protocol: Hair of rats were carefully shaved by hair clipper, and pirfenidone was administered orally to the rats (160 mg/kg or 30 mg/kg), and the rats were irradiated with a black light. Colors of the skin before and after the light irradiation were evaluated with a color difference meter.

[4] = Pharmacokinetics (3): skin transmigration in repeated-dose administrations; format: in vivo
Protocol: Results of having monitored the amount of skin transmigration of pirfenidone in repeated-dose administrations by oral and inhalation are shown in FIG. 8. Although a temporary elevation of the pirfenidone concentration in the skin was observed by pirfenidone oral administration (30, 160 mg/kg) also in repeated-dose administrations in every 12 hours, the elevation disappeared in about 6 hours after administration. […] From this, the systemic side effect is considered to be avoidable even when the respirable formulation is used repeatedly.

Photostability testing = format: physicochemical; conditions: simulated sunlight (250 W/m^2)
Protocol: Here, in respirable formulation of pirfenidone, both liquid and dry powder formulations can be considered in theory. Then, to clarify the photochemical properties in more detail, photostability testing was carried out. […] In general, photosensitive chemicals in a solution state are far more prone to photodegradation than solid samples due to the high permeability of light and increased mobility of photochemically excited molecules and reactive species. From this, taken together with the result shown in FIG. 3 (B), dry powder formulation, rather than liquid formulation, is preferable as a respirable formulation of pirfenidone.

[5] = patients who have taken the oral agent; cited from earlier work
[6] = 30 mg/kg oral, UV +, after treatment
[7] = 30 mg/kg oral, UV +, initial value
[8] = 30 mg/kg oral, UV −, after treatment
[9] = 30 mg/kg oral, UV −, initial value
[10] = 160 mg/kg oral, UV +, after treatment
[11] = 160 mg/kg oral, UV +, initial value
[12] = 160 mg/kg oral, UV −, after treatment
[13] = 160 mg/kg oral, UV −, initial value

SMILES: COc1c2occc2cc2ccc(=O)oc12 [Formulation 8-MOP, 8-methoxypsoralen]
ROS generation (singlet oxygen, superoxide), photoreactivity ([1]; exposed to simulated sunlight (250 W/m^2)): photoreactive

ROS generation (singlet oxygen, superoxide), photoreactivity [1]: no ability to generate ROS
SMILES: COc1cc(O)c(C(=O)c2ccccc2)cc1S(=O)(=O)O [Sulisobenzone, sulisobenzone]

ROS generation (singlet oxygen, superoxide), photoreactivity [1]: photoreactive | AUC0→∞ ([2]; eyes, rats, 30 mg/kg, p.o.): 8.33 ± 0.39 h · μg/g tissue | AUC0→∞ ([2]; eyes, rats, 160 mg/kg, p.o.): 58.8 ± 1.3 h · μg/g tissue | AUC0→∞ ([2]; lung, rats, 30 mg/kg, p.o.): 6.45 ± 0.43 h · μg/g tissue | AUC0→∞ ([2]; lung, rats, 160 mg/kg, p.o.): 52.1 ± 1.0 h · μg/g tissue | Cmax ([2]; po, eyes, rats, 30 mg/kg): 3950 ± 300 ng/g | MRT ([2]; po, eyes, rats, 30 mg/kg): 1.06 ± 0.13 h | half-life ([2]; po, eyes, rats, 30 mg/kg, p.o., read-out: t1/2 (converted)): 0.668 ± 0.18 h | Cmax ([2]; po, eyes, rats, 160 mg/kg): 26000 ± 2600 ng/g | MRT ([2]; po, eyes, rats, 160 mg/kg): 1.93 ± 0.051 h | half-life ([2]; po, eyes, rats, 160 mg/kg, p.o., read-out: t1/2 (converted)): 1.06 ± 0.27 h | Cmax ([2]; po, lung, rats, 30 mg/kg): 6460 ± 690 ng/g | MRT ([2]; po, lung, rats, 30 mg/kg): 0.787 ± 0.16 h | half-life ([2]; po, lung, rats, 30 mg/kg, p.o., read-out: t1/2 (converted)): 0.799 ± 0.24 h | Cmax ([2]; po, lung, rats, 160 mg/kg): 37600 ± 5700 ng/g | MRT ([2]; po, lung, rats, 160 mg/kg): 1.32 ± 0.041 h | half-life ([2]; po, lung, rats, 160 mg/kg, p.o., read-out: t1/2 (converted)): 0.766 ± 0.16 h | AUC(0-inf) ([2]; po, plasma, rats, 30 mg/kg): 14.1 ± 0.92 µg·h/mL | Cmax ([2]; po, plasma, rats, 30 mg/kg): 19.7 ± 0.93 µg/mL | MRT ([2]; po, plasma, rats, 30 mg/kg): 0.667 ± 0.094 h | half-life ([2]; po, plasma, rats, 30 mg/kg, p.o., read-out: t1/2 (converted)): 0.33 ± 0.02 h | AUC(0-inf) ([2]; po, plasma, rats, 160 mg/kg): 152 ± 10 µg·h/mL | Cmax ([2]; po, plasma, rats, 160 mg/kg): 135 ± 11 µg/mL | MRT ([2]; po, plasma, rats, 160 mg/kg): 1.05 ± 0.075 h | half-life ([2]; po, plasma, rats, 160 mg/kg, p.o., read-out: t1/2 (converted)): 0.53 ± 0.03 h | Cmax ([2]; po, skin, rats, 30 mg/kg): 8160 ± 470 ng/g | MRT ([2]; po, skin, rats, 30 mg/kg): 1.14 ± 0.12 h | half-life ([2]; po, skin, rats, 30 mg/kg, p.o., read-out: t1/2 (converted)): 1.07 ± 0.28 h | Cmax ([2]; po, skin, rats, 160 mg/kg): 32900 ± 2600 ng/g | MRT ([2]; po, skin, rats, 160 mg/kg): 1.7 ± 0.043 h | half-life ([2]; po, skin, rats, 160 mg/kg, p.o., read-out: t1/2 (converted)): 1.06 ± 0.24 h | half-life ([2]; plasma and lung, oral administration (30 and 160 mg/kg), read-out: half lives): 0.3 to 0.8 h | half-life ([2]; skin and eye, after oral dosing, read-out: half-life of elimination phase): 0.7 to 1.1 h | time of reaching maximum levels ([2]; skin and eye, after oral dosing): ca. 0.5 h | AUC0→∞ ([2]; skin, rats, 30 mg/kg, p.o.): 11.5 ± 0.51 h · μg/g tissue | AUC0→∞ ([2]; skin, rats, 160 mg/kg, p.o.): 68.0 ± 1.4 h · μg/g tissue | concentration at 1 h [3]: ~20000 ng/g | time after administration at which the elevation of skin concentration disappeared ([4]; oral 30, 160 mg/kg, repeated-dose every 12 hours): about 6 hours | accumulation in skin ([4]; oral, repeated-dose administrations): did not show any accumulation trend | degradation (Photostability testing; powder): no significant degradation | apparent first-order degradation rate (Photostability testing; solution): 0.31 ± 0.03 h⁻¹
SMILES: Cc1ccc(=O)n(-c2ccccc2)c1 [pirfenidone]
ΔE, evaluation of color change (skin; 30 mg/kg oral, UV +): 2.40 ± 0.20 | L* (skin; [6]): 72.26 | a* (skin; [6]): 2.81 | b* (skin; [6]): 5.72 | L* (skin; [7]): 72.90 | a* (skin; [7]): 1.27 | b* (skin; [7]): 4.14 | ΔE, evaluation of color change (skin; 30 mg/kg oral, UV −): 1.47 ± 0.27 | L* (skin; [8]): 71.56 | a* (skin; [8]): 1.54 | b* (skin; [8]): −0.36 | L* (skin; [9]): 70.16 | a* (skin; [9]): 1.19 | b* (skin; [9]): −0.18 | change of skin color compared to the control group (skin; 30 mg/kg oral): significant change was not observed | photodermatosis (skin; 30 mg/kg orally to rat): photodermatosis was not caused | ΔE, evaluation of color change (skin; 160 mg/kg oral, UV +): 3.97 ± 0.59 | L* (skin; [10]): 72.35 | a* (skin; [10]): 2.06 | b* (skin; [10]): 9.17 | L* (skin; [11]): 71.05 | a* (skin; [11]): 0.89 | b* (skin; [11]): 5.67 | ΔE, evaluation of color change (skin; 160 mg/kg oral, UV −): 1.69 ± 0.24 | L* (skin; [12]): 71.04 | a* (skin; [12]): −1.04 | b* (skin; [12]): 4.88 | L* (skin; [13]): 70.59 | a* (skin; [13]): 0.09 | b* (skin; [13]): 3.67 | change of skin color compared to the control group (skin; 160 mg/kg oral): Change of skin color was intentionally observed | expression frequency of drug-induced photodermatosis [5]: about 60%
